The source of these data is ChEMBL document CHEMBL1130043, “Chemometric methodologies in a quantitative structure-activity relationship study: the antibacterial activity of 6-aminoquinolones” (1997).

Common to all, as to assay type: functional
Experiment [1] deals with Acinetobacter calcoaceticus. The experiment in a line: Antibacterial activity against Acinetobacter calcoaceticus OSMPV 113 (Gram negative) strain.
In experiment [2] the test system is Escherichia coli. The experiment in a line: Antibacterial activity against Escherichia coli ATCC 8739(Gram negative) strain.
Experiment [3] concerns Escherichia coli. Put plainly: Antibacterial activity against Escherichia coli ISF 432(Gram negative) strain.
Another experiment relates to Enterobacter cloacae. Put plainly: Antibacterial activity against Enterobacter cloacae OMNFI 174 (Gram negative) strain.
The next experiment has as its system Klebsiella pneumoniae. Put plainly: Antibacterial activity against Klebsiella pneumoniae ATCC 10031 (Gram negative) strain.
A further experiment has as its system Providencia stuartii. Put plainly: Antibacterial activity against Providencia stuartii CNUR 5(Gram negative) strain.
Another experiment deals with Pseudomonas aeruginosa. Put plainly: Antibacterial activity against Pseudomonas aeruginosa ATCC 9027(Gram negative) strain.
A further experiment deals with Shigella. Put plainly: Antibacterial activity against Shigella enteritidis (Gram negative) strain.
Experiment [4] has as its system Staphylococcus epidermidis. The experiment in a line: Antibacterial activity against Staphylococcus epidermidis HCF Berset C (Gram positive) strain.
Experiment [5] concerns Staphylococcus epidermidis. Put plainly: Antibacterial activity against Staphylococcus epidermidis CPHL A2 (Gram positive) strain, activity is expressed as log2MIC.
Experiment [6] deals with Staphylococcus aureus. Put plainly: Antibacterial activity against Staphylococcus aureus MPR 5 (Gram positive) strain.
In a further experiment the test system is Enterococcus faecalis. Put plainly: Antibacterial activity against Streptococcus faecalis LEP Br (Gram positive) strain.
For experiment [7], the system named is Staphylococcus aureus. Put plainly: Antibacterial activity against Staphylococcus aureus ATCC 6538 (Gram positive) strain.

`CN1CCN(c2cc3c(cc2N)c(=O)c(C(=O)O)cn3C2CC2)CC1`: the Log2 MIC is 2 in experiment [1]; 9 in the experiment on Escherichia coli [2]; 12 with Escherichia coli [3]; 9 in the experiment on Enterobacter cloacae; 12 with Klebsiella pneumoniae; 4 in the experiment with Providencia stuartii. Besides, the “Log2 MIC” value in the experiment on Pseudomonas aeruginosa was 5; in the experiment with Shigella, 9; in experiment [4], 5; in experiment [5] it was 6; in the experiment with Staphylococcus aureus [6] it was 6; in the experiment with Enterococcus faecalis, 2. In addition, the “Log2 MIC” value in the experiment on Staphylococcus aureus [7] was 6.

On to `CN1CCN(c2c(N)c(N)c3c(=O)c(C(=O)O)cn(C4CC4)c3c2F)CC1`, for which the “Log2 MIC” value in [1] is given as 6; in the experiment with Escherichia coli [2], 12; in the experiment on Escherichia coli [3] it was 12; in the experiment on Enterobacter cloacae, 10; with Klebsiella pneumoniae, 12; with Providencia stuartii, 6. Moreover, the “Log2 MIC” value in the experiment with Pseudomonas aeruginosa is given as 5; in the experiment with Shigella, 9; in [4], 5; in experiment [5] it was 5; in the experiment with Staphylococcus aureus [6], 6; with Enterococcus faecalis, 5. The “Log2 MIC” value with Staphylococcus aureus [7] is on record as 6.

As for `Nc1cc2c(=O)c(C(=O)O)cn(C3CC3)c2cc1N1CCSCC1`, the “Log2 MIC” value in experiment [1] was 7; in the experiment with Escherichia coli [2], 12; in the experiment on Escherichia coli [3] it was 12; in the experiment with Enterobacter cloacae it was 8; in the experiment on Klebsiella pneumoniae, 12; with Providencia stuartii it was 7. The “Log2 MIC” value amounted to 6 with Pseudomonas aeruginosa; 8 in the experiment on Shigella; 6 in experiment [4]; 7 in experiment [5]; 8 with Staphylococcus aureus [6]; 4 with Enterococcus faecalis. Besides, the “Log2 MIC” value with Staphylococcus aureus [7] was 8.

With `CC(C)(C)n1cc(C(=O)O)c(=O)c2cc(N)c(N3CCCC3)cc21`, the “Log2 MIC” value is on record as 3 in experiment [1]; 10 in the experiment with Escherichia coli [2]; 10 with Escherichia coli [3]; 3 with Enterobacter cloacae; 10 with Klebsiella pneumoniae; 1 in the experiment with Providencia stuartii. Moreover, the “Log2 MIC” value in the experiment on Pseudomonas aeruginosa is 1; in the experiment on Shigella, 2; in [4] it was 4; in experiment [5], 4; in the experiment with Staphylococcus aureus [6] it was 4; in the experiment with Enterococcus faecalis, 0. The “Log2 MIC” value with Staphylococcus aureus [7] was found to be 5.

Take `Nc1cc2c(=O)c(C(=O)O)cn(C3CC3)c2cc1NC1CC1`: the “Log2 MIC” value in experiment [1] is 0; in the experiment on Escherichia coli [2], 6; in the experiment with Escherichia coli [3] it was 5; in the experiment with Enterobacter cloacae, 1; in the experiment with Klebsiella pneumoniae, 6; in the experiment with Providencia stuartii, 0. Also, the “Log2 MIC” value is 0 in the experiment with Pseudomonas aeruginosa; 1 in the experiment with Shigella; 0 in experiment [4]; 0 in experiment [5]; 0 with Staphylococcus aureus [6]; 0 with Enterococcus faecalis. In the experiment with Staphylococcus aureus [7], the “Log2 MIC” value was determined as 0.

Regarding `CC(C)(C)n1cc(C(=O)O)c(=O)c2cc(N)c(N3CCSCC3)cc21`, the “Log2 MIC” value in [1] is recorded as 8; in the experiment on Escherichia coli [2] it was 11; with Escherichia coli [3] it was 12; with Enterobacter cloacae, 6; in the experiment with Klebsiella pneumoniae, 12; with Providencia stuartii, 5. The “Log2 MIC” value was 5 in the experiment on Pseudomonas aeruginosa; 6 with Shigella; 8 in experiment [4]; 8 in experiment [5]; 9 with Staphylococcus aureus [6]; 4 with Enterococcus faecalis. Further, in the experiment with Staphylococcus aureus [7], the “Log2 MIC” value is 9.

For `Nc1cc2c(=O)c(C(=O)O)cn(C3CC3)c2cc1N1CCC(O)CC1`, the Log2 MIC in experiment [1] is 0; with Escherichia coli [2], 12; with Escherichia coli [3], 12; with Enterobacter cloacae, 6; with Klebsiella pneumoniae it was 12; in the experiment with Providencia stuartii, 4. The “Log2 MIC” value with Pseudomonas aeruginosa is given as 4; with Shigella it was 6; in experiment [4], 5; in [5] it was 6; with Staphylococcus aureus [6], 5; with Enterococcus faecalis it was 4. Moreover, the “Log2 MIC” value in the experiment with Staphylococcus aureus [7] is given as 5.

Take `Nc1cc2c(=O)c(C(=O)O)cn(C3CC3)c2cc1N1CCSC1`: the “Log2 MIC” value is recorded as 0 in experiment [1]; 8 in the experiment with Escherichia coli [2]; 7 in the experiment on Escherichia coli [3]; 3 in the experiment with Enterobacter cloacae; 8 in the experiment on Klebsiella pneumoniae; 0 in the experiment with Providencia stuartii. The “Log2 MIC” value with Pseudomonas aeruginosa came to 0; in the experiment with Shigella it was 2; in [4] it was 1; in experiment [5] it was 1; in the experiment on Staphylococcus aureus [6] it was 0; in the experiment with Enterococcus faecalis, 0. For the same molecule, the “Log2 MIC” value in the experiment on Staphylococcus aureus [7] is on record as 1.

As for `Cc1c(N2CC(C)NC(C)C2)c(N)cc2c(=O)c(C(=O)O)cn(C3CC3)c12` (stereo not drawn), the “Log2 MIC” value in experiment [1] is 6; in the experiment on Escherichia coli [2], 11; in the experiment on Escherichia coli [3] it was 12; in the experiment on Enterobacter cloacae, 8; in the experiment with Klebsiella pneumoniae, 12; in the experiment with Providencia stuartii, 6. Also, the “Log2 MIC” value with Pseudomonas aeruginosa worked out at 6; in the experiment on Shigella it was 9; in experiment [4], 6; in experiment [5], 7; with Staphylococcus aureus [6] it was 7; in the experiment on Enterococcus faecalis, 3. Also, the “Log2 MIC” value in the experiment on Staphylococcus aureus [7] is listed as 7.

As to `CC(C)(C)n1cc(C(=O)O)c(=O)c2cc(N)c(N3CCc4ccccc43)cc21`, the “Log2 MIC” value is on record as 4 in [1]; 10 in the experiment on Escherichia coli [2]; 10 with Escherichia coli [3]; 4 in the experiment with Enterobacter cloacae; 10 with Klebsiella pneumoniae; 5 in the experiment with Providencia stuartii. Besides, the “Log2 MIC” value in the experiment on Pseudomonas aeruginosa turned out to be 2; in the experiment on Shigella it was 4; in [4], 5; in [5], 5; in the experiment on Staphylococcus aureus [6] it was 6; in the experiment with Enterococcus faecalis, 1. In addition, in the experiment with Staphylococcus aureus [7], the “Log2 MIC” value came to 6.

Take `N#CCN1CCN(c2cc3c(cc2N)c(=O)c(C(=O)O)cn3C2CC2)CC1`: the “Log2 MIC” value in experiment [1] was 1; in the experiment on Escherichia coli [2] it was 5; with Escherichia coli [3] it was 6; in the experiment on Enterobacter cloacae, 6; with Klebsiella pneumoniae it was 6; in the experiment with Providencia stuartii, 1. The “Log2 MIC” value with Pseudomonas aeruginosa came to 2; in the experiment on Shigella it was 6; in experiment [4], 1; in experiment [5], 1; with Staphylococcus aureus [6], 1; in the experiment on Enterococcus faecalis, 1. Also, the “Log2 MIC” value in the experiment on Staphylococcus aureus [7] is 1.

`CC1CN(c2cc3c(cc2N)c(=O)c(C(=O)O)cn3C2CC2)CC(C)N1` (stereo not drawn): the “Log2 MIC” value in experiment [1] is listed as 4; in the experiment on Escherichia coli [2] it was 12; in the experiment with Escherichia coli [3], 12; with Enterobacter cloacae, 8; in the experiment on Klebsiella pneumoniae it was 12; with Providencia stuartii it was 5. The “Log2 MIC” value is on record as 6 with Pseudomonas aeruginosa; 9 in the experiment on Shigella; 5 in [4]; 6 in [5]; 4 in the experiment with Staphylococcus aureus [6]; 2 in the experiment with Enterococcus faecalis. In addition, the “Log2 MIC” value with Staphylococcus aureus [7] is recorded as 4.

Regarding `CN1CCN(c2c(N)cc3c(=O)c(C(=O)O)cn(C4CC4)c3c2F)CC1`, the “Log2 MIC” value in experiment [1] is reported as 4; in the experiment with Escherichia coli [2], 7; with Escherichia coli [3], 11; with Enterobacter cloacae, 9; in the experiment with Klebsiella pneumoniae, 11; with Providencia stuartii it was 5. The “Log2 MIC” value came out at 6 with Pseudomonas aeruginosa; 8 in the experiment with Shigella; 4 in experiment [4]; 5 in experiment [5]; 5 in the experiment on Staphylococcus aureus [6]; 1 in the experiment with Enterococcus faecalis. Further, the “Log2 MIC” value with Staphylococcus aureus [7] came to 5.

As to `CC1CN(c2cc3c(cc2N)c(=O)c(C(=O)O)cn3C2CC2)CCN1` (stereo not drawn), the “Log2 MIC” value in [1] is 3; in the experiment on Escherichia coli [2], 12; with Escherichia coli [3], 12; in the experiment on Enterobacter cloacae, 9; in the experiment with Klebsiella pneumoniae it was 12; in the experiment with Providencia stuartii, 3. Besides, the “Log2 MIC” value with Pseudomonas aeruginosa came to 6; with Shigella it was 9; in experiment [4], 5; in experiment [5], 5; in the experiment on Staphylococcus aureus [6], 3; in the experiment on Enterococcus faecalis it was 2. Further, in the experiment with Staphylococcus aureus [7], the “Log2 MIC” value is 3.

As for `CC(C)(C)n1cc(C(=O)O)c(=O)c2cc(N)c(N3CCc4ccccc4C3)cc21`, the “Log2 MIC” value in experiment [1] was 6; with Escherichia coli [2] it was 10; in the experiment on Escherichia coli [3], 10; in the experiment with Enterobacter cloacae, 4; in the experiment with Klebsiella pneumoniae it was 10; with Providencia stuartii, 5. In addition, the “Log2 MIC” value was found to be 2 in the experiment with Pseudomonas aeruginosa; 4 with Shigella; 7 in experiment [4]; 8 in [5]; 8 in the experiment on Staphylococcus aureus [6]; 4 in the experiment on Enterococcus faecalis. The “Log2 MIC” value with Staphylococcus aureus [7] turned out to be 9.

As for `Nc1cc2c(=O)c(C(=O)O)cn(C3CC3)c2cc1N1CCNCC1`, the “Log2 MIC” value is recorded as 3 in [1]; 9 in the experiment on Escherichia coli [2]; 12 with Escherichia coli [3]; 9 in the experiment on Enterobacter cloacae; 9 with Klebsiella pneumoniae; 2 in the experiment on Providencia stuartii. In addition, the “Log2 MIC” value is listed as 6 with Pseudomonas aeruginosa; 8 in the experiment on Shigella; 3 in [4]; 3 in [5]; 1 with Staphylococcus aureus [6]; 0 in the experiment on Enterococcus faecalis. Further, in the experiment on Staphylococcus aureus [7], the “Log2 MIC” value was 1.
